{
  "source": "paper PMC8879107",
  "about": "“A3 Adenosine Receptor Antagonists with Nucleoside Structures and Their Anticancer Activity” (Pharmaceuticals, 2022)",
  "origin": "cited, not measured here",
  "key": {"[1]": {"test_system": "human prostate (PC3), colon (Caco-2) and hepatocyte (Hep G2) carcinomas", "set-up": "method as in PMID 29763615", "conditions": "all three tumor cell lines PC3, Caco-2, Hep G2; cited from earlier work"}, "[2]": {"target": "T1, human A3AR (Homo sapiens, UniProt P0DMS8)", "T1 sequence (P0DMS8 1-318)": "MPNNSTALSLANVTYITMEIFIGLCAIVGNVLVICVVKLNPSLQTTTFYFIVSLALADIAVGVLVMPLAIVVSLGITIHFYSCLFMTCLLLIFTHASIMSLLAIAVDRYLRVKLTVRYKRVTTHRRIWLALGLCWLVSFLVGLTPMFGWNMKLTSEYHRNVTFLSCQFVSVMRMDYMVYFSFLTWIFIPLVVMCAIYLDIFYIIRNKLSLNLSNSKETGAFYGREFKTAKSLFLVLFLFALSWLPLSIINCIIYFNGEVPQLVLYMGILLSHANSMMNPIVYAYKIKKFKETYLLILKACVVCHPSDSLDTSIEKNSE", "set-up": "expressed in transfected cells; host or cells: CHO cells stably expressing A3AR and the GloSensor biosensor plasmid; method as in PMID 29763615, PMID 19839592", "conditions": "cited from earlier work"}},
  "data": [
    {"smiles": "CNC(=O)[C@H]1O[C@@H](n2cnc3c(NC)nc(C#Cc4ccccc4)nc32)[C@H](O)[C@@H]1O", "note": "[Compound 3, N^6-methyl-2-phenylethynyladenosine-5′-N-methyluronamide, reference compound]", "values": [
      {"measurement": "anticancer effect (cell growth inhibition)", "setting": "[1]", "result": "almost inactive"},
      {"measurement": "functional behaviour at A3AR", "setting": "[2]", "result": "full A3AR agonist"}
    ]}
  ]
}
